# Results from PubChem BioAssay (NCI).
#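 All cell lines were grown in 96-well plates and treated with compound for 48 hours. Definition used: TGI = concentration required for complete inhibition of growth.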
# Key:
# Assay in all cases: growth of human tumour cells (NCI), 48 h
# A549 NSCLC = test system: A549 NSCLC
# CCRF-CEM leukemia = test system: CCRF-CEM leukemia
# NCI/ADR-RES ovarian = test system: NCI/ADR-RES ovarian
# HCT-15 colon = test system: HCT-15 colon
# K-562 leukemia = test system: K-562 leukemia
# UO-31 renal = test system: UO-31 renal
# IGROV1 ovarian = test system: IGROV1 ovarian
# UACC-257 melanoma = test system: UACC-257 melanoma
# NCI-H226 lung = test system: NCI-H226 lung
# HL-60(TB) leukemia = test system: HL-60(TB) leukemia
# OVCAR-3 ovarian = test system: OVCAR-3 ovarian
# HCT-116 colon = test system: HCT-116 colon
# T-47D breast = test system: T-47D breast
# MDA-MB-231 breast = test system: MDA-MB-231 breast
# NCI-H522 lung = test system: NCI-H522 lung
# SF-268 CNS = test system: SF-268 CNS
# OVCAR-4 ovarian = test system: OVCAR-4 ovarian
# HOP-62 NSCLC = test system: HOP-62 NSCLC
# MDA-MB-435 = test system: MDA-MB-435
# SF-295 CNS = test system: SF-295 CNS
# HT29 colon = test system: HT29 colon
# SR leukemia = test system: SR leukemia
# LOX IMVI melanoma = test system: LOX IMVI melanoma
# UACC-62 melanoma = test system: UACC-62 melanoma
# SK-MEL-28 melanoma = test system: SK-MEL-28 melanoma
# MCF7 breast = test system: MCF7 breast
# KM12 colon = test system: KM12 colon
# SF-539 CNS = test system: SF-539 CNS
# ACHN renal = test system: ACHN renal
# HCC-2998 colon = test system: HCC-2998 colon
# SNB-75 CNS = test system: SNB-75 CNS
# TK-10 renal = test system: TK-10 renal
# SN12C renal = test system: SN12C renal
# A498 renal = test system: A498 renal
# SNB-19 CNS = test system: SNB-19 CNS
# M14 melanoma = test system: M14 melanoma
# SK-MEL-2 melanoma = test system: SK-MEL-2 melanoma
# MDA-N = test system: MDA-N
# OVCAR-5 ovarian = test system: OVCAR-5 ovarian
# MALME-3M melanoma = test system: MALME-3M melanoma
# DU-145 prostate = test system: DU-145 prostate
# NCI-H460 lung = test system: NCI-H460 lung
# EKVX NSCLC = test system: EKVX NSCLC
# SK-MEL-5 melanoma = test system: SK-MEL-5 melanoma
# 786-0 renal = test system: 786-0 renal
# SW-620 colon = test system: SW-620 colon
# RXF 393 renal = test system: RXF 393 renal
# HOP-92 NSCLC = test system: HOP-92 NSCLC
# SK-OV-3 ovarian = test system: SK-OV-3 ovarian
# COLO 205 colon = test system: COLO 205 colon
# PC-3 prostate = test system: PC-3 prostate
# MOLT-4 leukemia = test system: MOLT-4 leukemia
# U251 CNS = test system: U251 CNS
# NCI-H23 lung = test system: NCI-H23 lung
# OVCAR-8 ovarian = test system: OVCAR-8 ovarian
structure (smiles),measurement,setting,value
COC(=O)[C@@H](NC1(c2ccccc2)c2ccccc2-c2ccccc21)[C@H](OC(=O)[C@H]1CCCN1S(=O)(=O)c1ccccc1)C(=O)OC,TGI,A549 NSCLC,> 100 µM
same,TGI,CCRF-CEM leukemia,> 100 µM
same,TGI,NCI/ADR-RES ovarian,> 100 µM
same,TGI,HCT-15 colon,> 100 µM
same,TGI,K-562 leukemia,> 100 µM
same,TGI,UO-31 renal,> 100 µM
same,TGI,IGROV1 ovarian,> 100 µM
same,TGI,UACC-257 melanoma,> 100 µM
same,TGI,NCI-H226 lung,> 100 µM
same,TGI,HL-60(TB) leukemia,> 100 µM
same,TGI,OVCAR-3 ovarian,> 100 µM
same,TGI,HCT-116 colon,> 100 µM
same,TGI,T-47D breast,> 100 µM
same,TGI,MDA-MB-231 breast,> 100 µM
same,TGI,NCI-H522 lung,> 100 µM
same,TGI,SF-268 CNS,> 100 µM
same,TGI,OVCAR-4 ovarian,> 100 µM
same,TGI,HOP-62 NSCLC,> 100 µM
same,TGI,MDA-MB-435,> 100 µM
same,TGI,SF-295 CNS,> 100 µM
same,TGI,HT29 colon,> 100 µM
same,TGI,SR leukemia,> 100 µM
same,TGI,LOX IMVI melanoma,> 100 µM
same,TGI,UACC-62 melanoma,> 100 µM
same,TGI,SK-MEL-28 melanoma,> 100 µM
same,TGI,MCF7 breast,> 100 µM
same,TGI,KM12 colon,> 100 µM
same,TGI,SF-539 CNS,> 100 µM
same,TGI,ACHN renal,> 100 µM
same,TGI,HCC-2998 colon,> 100 µM
same,TGI,SNB-75 CNS,> 100 µM
same,TGI,TK-10 renal,> 100 µM
same,TGI,SN12C renal,> 100 µM
same,TGI,A498 renal,> 100 µM
same,TGI,SNB-19 CNS,> 100 µM
same,TGI,M14 melanoma,> 100 µM
same,TGI,SK-MEL-2 melanoma,> 100 µM
same,TGI,MDA-N,> 100 µM
same,TGI,OVCAR-5 ovarian,> 100 µM
same,TGI,MALME-3M melanoma,> 100 µM
same,TGI,DU-145 prostate,> 100 µM
same,TGI,NCI-H460 lung,> 100 µM
same,TGI,EKVX NSCLC,> 100 µM
same,TGI,SK-MEL-5 melanoma,> 100 µM
same,TGI,786-0 renal,> 100 µM
same,TGI,SW-620 colon,> 100 µM
same,TGI,RXF 393 renal,> 100 µM
same,TGI,HOP-92 NSCLC,84.1 µM
same,TGI,SK-OV-3 ovarian,> 100 µM
same,TGI,COLO 205 colon,> 100 µM
same,TGI,PC-3 prostate,> 100 µM
same,TGI,MOLT-4 leukemia,> 100 µM
same,TGI,U251 CNS,> 100 µM
same,TGI,NCI-H23 lung,> 100 µM
same,TGI,OVCAR-8 ovarian,> 100 µM
